# In patent publication EP0091090A2, “Bipyridine substituted imidazolidene copper complex and its use in food-producing animals, and bipyridine, 2,2'-(2-imidazolidinylidene) di-copper complex and use in animals” (INTERNATIONAL MINERALS & CHEMICAL CORPORATION, priority 1982, dated 1983):
# Tested on: rumen fluid batch culture
# Experiment: Rumen fluid batch culture test: volatile fatty acid, gas (CH4 + H2), protein and amino acid accumulation (Example 2)
# Format: cell-based, steers
# Parameters: HFo (formate) / HAc (acetate) / HPr (propionate) / HiBu (isobutyrate) / HBu (butyrate) / HiVal (isovalerate) / Total / Caloric Value of H2 / Caloric Value of HFo / Caloric Value of HAc / Caloric Value of HPr / Caloric Value of HiBu / Caloric Value of HBu / Caloric Value of HiVal / Caloric Value of CH3: unit not given here
# Method: The above Formula IV composition was tested to determine its effectiveness as a feed additive for ruminants. The initial tests were in rumen fluid batch culture systems to determine the effect of the compound on volatile fatty acid/methane ratios (VFA/CH4). […] Test Procedure: A 50/50 mixture of ground corn and ground alfalfa was used as the substrate for the subject rumen fluid batch culture test. The compound (Formula IV ) was present in the rumen fluid in three separate test samples at 8.33, 25 and 75 ppm, respectively. On day 1, rumen fluid was obtained from mature fistulated steers on 50/50 concentrate/roughage diets. The rumen fluid (RF) was strained through three layers of gauze cloth and equilibrated with C02 gas. Wheaton serum vials (125 ml) were prepared ahead with 20 ml continuous batch buffer and 100 mg 50/50 ground corn/ground alfalfa. Controls and compounds (dissolved in acetone) were set up according to desired levels. The vials were kept under C02 gas until 20 ml of the strained RF was added. The vials were sealed and incubated at 39°C for 24 hours in a hot water bath. On successive days, gas samples (0.1 ml) were drawn for gas chromatography analysis before transferring 20 ml of the batch culture to another vial containing 20 ml of buffer, 100 mg substrate, and the corresponding compound. The remaining 20 ml was inoculated with 2 ml 6N HC1 and centrifuged at 15,000 rpm for 15 minutes. Ether extracts were prepared for volatile fatty acid (VFA) analysis. Some minor adjustments were made in the termperatures on the Hewlett-Packard 5750 Gas-Liquid Chromatograph used for VFA analysis when the glass column used was changed from 1/4 inch diameter to 1/8 inch diameter. Injection Port = 220°C Column Oven = 170°C Flame Detector = 250°C Only 4 minutes was needed to record the sample instead of the previous 7 minutes.
# [1] = 75 μg/ml, total produced on Day 10
# [2] = all levels tested (8.33, 25 and 75 ppm), versus control
substance,measurement,setting,value
"2,2'-(4,5-diphenyl-2H-imidazol-2-ylidene)bispyridine with CuCl2(1/1) [Formula IV Compound]",HPr (propionate),"75 µg/ml, day 5",17.24
same,HiBu (isobutyrate),"75 µg/ml, day 5",0.51
same,HiVal (isovalerate),"75 µg/ml, day 5",0.26
same,Total,"75 µg/ml, day 5",47.03
same,AA,"75 µg/ml, day 6",0.20 µ Moles/ml
same,CH4,"75 µg/ml, day 6",67 µ Moles
same,H2,"75 µg/ml, day 6",0 µ Moles
same,HAc (acetate),"75 µg/ml, day 6",25.01
same,HBu (butyrate),"75 µg/ml, day 6",1.78
same,HFo (formate),"75 µg/ml, day 6",0.51
same,HPr (propionate),"75 µg/ml, day 6",16.43
same,HiBu (isobutyrate),"75 µg/ml, day 6",0.39
same,HiVal (isovalerate),"75 µg/ml, day 6",0.58
same,Protein,"75 µg/ml, day 6",0.02 mg/mL
same,Total,"75 µg/ml, day 6",44.68
same,AA,"75 µg/ml, day 7",0.26 µ Moles/ml
same,CH4,"75 µg/ml, day 7",3 µ Moles
same,H2,"75 µg/ml, day 7",0 µ Moles
same,HAc (acetate),"75 µg/ml, day 7",19.59
same,HBu (butyrate),"75 µg/ml, day 7",9.9
same,HFo (formate),"75 µg/ml, day 7",3.17
same,HPr (propionate),"75 µg/ml, day 7",14.41
same,HiBu (isobutyrate),"75 µg/ml, day 7",0.83
same,HiVal (isovalerate),"75 µg/ml, day 7",0.10
same,Protein,"75 µg/ml, day 7",0.01 mg/mL
same,Total,"75 µg/ml, day 7",48.01
same,AA,"75 µg/ml, day 8",0.31 µ Moles/ml
same,CH4,"75 µg/ml, day 8",3 µ Moles
same,H2,"75 µg/ml, day 8",0 µ Moles
same,HAc (acetate),"75 µg/ml, day 8",17.86
same,HBu (butyrate),"75 µg/ml, day 8",11.25
same,HFo (formate),"75 µg/ml, day 8",3.52
same,HPr (propionate),"75 µg/ml, day 8",14.08
same,HiBu (isobutyrate),"75 µg/ml, day 8",2.61
same,HiVal (isovalerate),"75 µg/ml, day 8",0
same,Protein,"75 µg/ml, day 8",0 mg/mL
same,Total,"75 µg/ml, day 8",49.31
same,AA,"75 µg/ml, day 9",0.34 µ Moles/ml
same,CH4,"75 µg/ml, day 9",0 µ Moles
same,H2,"75 µg/ml, day 9",11 µ Moles
same,HAc (acetate),"75 µg/ml, day 9",18.93
same,HBu (butyrate),"75 µg/ml, day 9",9.21
same,HFo (formate),"75 µg/ml, day 9",2.61
same,HPr (propionate),"75 µg/ml, day 9",13.41
same,HiBu (isobutyrate),"75 µg/ml, day 9",3.16
same,HiVal (isovalerate),"75 µg/ml, day 9",0.26
same,Protein,"75 µg/ml, day 9",0 mg/mL
same,Total,"75 µg/ml, day 9",50.56
same,AA,"75 µg/ml, day 10",0.47 µ Moles/ml
same,CH4,"75 µg/ml, day 10",0 µ Moles
same,H2,"75 µg/ml, day 10",14 µ Moles
same,HAc (acetate),"75 µg/ml, day 10",18.71
same,HBu (butyrate),"75 µg/ml, day 10",8.16
same,HFo (formate),"75 µg/ml, day 10",2.52
same,HPr (propionate),"75 µg/ml, day 10",14.57
same,HiBu (isobutyrate),"75 µg/ml, day 10",3.74
same,HiVal (isovalerate),"75 µg/ml, day 10",0.27
same,Protein,"75 µg/ml, day 10",0 mg/mL
same,Total,"75 µg/ml, day 10",47.97
same,Caloric Value of CH3,"75 µg/ml, produced on Day 10",0
same,Caloric Value of H2,"75 µg/ml, produced on Day 10",0.96
same,Caloric Value of HAc,"75 µg/ml, produced on Day 10",77.39
same,Caloric Value of HBu,"75 µg/ml, produced on Day 10",74.05
same,Caloric Value of HFo,"75 µg/ml, produced on Day 10",3.06
same,Caloric Value of HPr,"75 µg/ml, produced on Day 10",114.76
same,Caloric Value of HiBu,"75 µg/ml, produced on Day 10",31.54
same,Caloric Value of HiVal,"75 µg/ml, produced on Day 10",3.80
same,"Caloric Value, Total (VFA's)","75 µg/ml, produced on Day 10",304.60
same,Total Cal in VFA & Gas,"75 µg/ml, produced on Day 10",305.56 cal
same,CH4 produced on Day 10,[1],0
same,H2 produced on Day 10,[1],14
same,HAc (acetate) produced on Day 10,[1],369.6
same,HBu (butyrate) produced on Day 10,[1],142.4
same,HFo (formate) produced on Day 10,[1],48.8
same,HPr (propionate) produced on Day 10,[1],314.4
same,HiBu (isobutyrate) produced on Day 10,[1],86.4
same,HiVal (isovalerate) produced on Day 10,[1],5.6
same,Total VFA's produced on Day 10,[1],994.2
same,Total energy in the end products,8.33 and 25 µg/ml,less than the control
same,butyrate produced,"8.33 and 75 µg/ml (not 25 µg/ml), versus control",more butyrate was produced
same,methane,8.33 ppm,decreased slightly
same,hydrogen production,"25 and 75 ppm, first 6 days",no hydrogen production
same,methane,"25 and 75 ppm, first 6 days",slight decreases
same,hydrogen produced,"25 and 75 ppm, seventh day",some hydrogen produced
same,methane,"25 and 75 ppm, seventh day",dropped drastically
same,increasing the number of calories available from the animals' feed,"75 ppm dosage level, Table 3",most effective amount
same,shift in volatile fatty acids produced,"all dosage levels, Table 2",desired shift in volatile fatty acids produced away from acetate towards propionate
same,Acetate,[2],decreased
same,propionate,[2],increased
same,activity in rumen fluid batch culture tests,tests of Examples 2 and 3,activity comparable to monensin
